Drawing on PubChem BioAssay AID1259408 (Genetic Toxicology Data Bank (GENE-TOX), 2018), this text covers mutagenic call and call for 23 compounds.

Calls of active or inactive are those of the source. No rule for the calls is given here.

This data set relates to GENE-TOX genotoxicity assays, various organisms and cells. As to the kind of experiment: GENE-TOX mutagenicity studies. Particulars: for call: Assay Type: In vivo carcinogenicity studies.
Where [1] appears, read: Species/Cell Type: Escherichia coli polA (W3119 vs P3478), Assay Type: Rec-assay, DNA effects (bacterial DNA repair), Assay Code: RE1T, Evaluation Type: Evaluation A (Pre-1980).
Where [2] appears, read: Species/Cell Type: Mouse, Sex: Male, Assay Type: Sperm morphology, Assay Code: SPI-, Evaluation Type: Evaluation A (Pre-1980).
The mark [3] stands for this setting: Species/Cell Type: Nonhuman, Assay Code: CCG+, Evaluation Type: Evaluation A (Pre-1980).
Setting [4] is: Species/Cell Type: Nonhuman, Assay Type: Sister-chromatid exchange (SCE) in vivo, Assay Code: SC3+, Evaluation Type: Evaluation B (Post-1980).
Where [5] appears, read: Species/Cell Type: Saccharomyces cerevisiae, Assay Type: Mitotic recombination or gene conversion, Assay Code: YEH-, Evaluation Type: Evaluation A (Pre-1980).
[6] abbreviates: Species/Cell Type: Salmonella typhimurium (one or more of the five standard strains: TA98, TA100, TA1535, TA1537, and TA1538), Assay Type: Histidine reverse gene mutation, Ames assay, Assay Code: SAL+*, Activation: With metabolic activation, Evaluation Type: Evaluation A (Pre-1980).
[7] abbreviates: Species/Cell Type: Saccharomyces cerevisiae, Assay Type: Mitotic recombination or gene conversion, Assay Code: YEC-, Evaluation Type: Evaluation A (Pre-1980).
The mark [8] stands for this setting: Species/Cell Type: Salmonella typhimurium (one or more of the five standard strains: TA98, TA100, TA1535, TA1537, and TA1538), Assay Type: Histidine reverse gene mutation, Ames assay, Assay Code: SAL+, Evaluation Type: Evaluation A (Pre-1980).
The mark [9] stands for this setting: Species/Cell Type: Salmonella typhimurium, Assay Type: Forward and reverse gene mutation, host-mediated assay, Assay Code: HMA-, Evaluation Type: Evaluation A (Pre-1980).
Setting [10] is: Species/Cell Type: Nonhuman, Assay Code: CCG+L, Evaluation Type: Evaluation A (Pre-1980).
[11] abbreviates: Species/Cell Type: Chinese hamster lung (V79) cells, Assay Type: Forward gene mutation at the HPRT or ouabain locus, Assay Code: V79-, Evaluation Type: Evaluation A (Pre-1980).
The mark [12] stands for this setting: Species/Cell Type: Salmonella typhimurium (one or more of the five standard strains: TA98, TA100, TA1535, TA1537, and TA1538), Assay Type: Histidine reverse gene mutation, Ames assay, Assay Code: SALT, Evaluation Type: Evaluation A (Pre-1980).
Where [13] appears, read: Species/Cell Type: Drosophila melanogaster, Assay Type: Sex-linked recessive lethal gene mutation, Assay Code: SRL+, Evaluation Type: Evaluation A (Pre-1980).
The mark [14] stands for this setting: Species/Cell Type: Nonhuman, Assay Code: CCGT, Evaluation Type: Evaluation A (Pre-1980).

Regarding `CN(C)c1ccc(N=Nc2ccccc2)cc1`, the mutagenic call runs as follows: (Species/Cell Type: Bacillus subtilis (H17 vs M45T), Assay Type: Rec-assay, spot test, DNA effects (bacterial DNA repair), Assay Code: REXT, Evaluation Type: Evaluation A (Pre-1980)) “no conclusion”; (Species/Cell Type: Drosophila melanogaster, Assay Type: Sex-linked recessive lethal gene mutation, Assay Code: SRLT, Evaluation Type: Evaluation A (Pre-1980)) “no conclusion”; (Species/Cell Type: Escherichia coli polA (W3110 vs P3478), Assay Type: Rec-assay, DNA effects (bacterial DNA repair), Assay Code: RE2-, Evaluation Type: Evaluation A (Pre-1980)) “inactive; negative”; under setting [1], “no conclusion”; (Species/Cell Type: Fischer rat embryo (RLV/1706) cells, Assay Type: Cell transformation, viral enhanced, Assay Code: CTR+, Evaluation Type: Evaluation A (Pre-1980)) “active; positive”; (Species/Cell Type: Human diploid fibroblasts, Assay Type: Unscheduled DNA synthesis (UDS) in vitro, DNA effects, Assay Code: UDHT, Evaluation Type: Evaluation A (Pre-1980)) “no conclusion”. The mutagenic call reads like this: (Species/Cell Type: Mammalian polychromatic erythrocytes, Assay Type: Micronucleus test, chromosome aberrations, Assay Code: MNT+, Evaluation Type: Evaluation A (Pre-1980)) “active; positive”; (Species/Cell Type: Mouse (BALB/c-3T3) cells, Assay Type: Cell transformation, Assay Code: CTB-, Evaluation Type: Evaluation A (Pre-1980)) “inactive; negative”; under setting [2], “inactive; negative”; (Species/Cell Type: Nonhuman, Assay Type: Sister-chromatid exchange (SCE) in vitro, Assay Code: SC2+D*, Activation: With metabolic activation, Dose Response: With dose response, Evaluation Type: Evaluation B (Post-1980)) “active; positive”; under setting [4], “active; positive”; under setting [5], “inactive; negative”. Moreover, the mutagenic call was “active; positive” under setting [6]; “active; positive” (Species/Cell Type: Salmonella typhimurium, Assay Type: Forward and reverse gene mutation, body fluid assay, Assay Code: BFU+, Evaluation Type: Evaluation A (Pre-1980)); “no conclusion” (Species/Cell Type: Syrian hamster embryo (SHE) cells, Assay Type: Cell transformation, clonal assay, Assay Code: CTCT, Evaluation Type: Evaluation A (Pre-1980)). Also, the call under setting [3] is “active; positive”.

Turning to `CSc1nnc(C(C)(C)C)c(=O)n1N`, the mutagenic call under setting [7] was “inactive; negative”.

Regarding `c1ccc(-c2ccc(C3CO3)cc2)cc1` (stereo unspecified), the mutagenic call under setting [8] was “active; positive”.

With `O[C@@H]1[C@H]2O[C@H]2c2cc3ccc4cccc5ccc(c2[C@H]1O)c3c45`, under setting [8], the mutagenic call was “active; positive”.

In the case of `CCOS(=O)(=O)c1ccc(C)cc1`, the mutagenic call was “active; positive” (Species/Cell Type: Escherichia coli polA (W3119 vs P3478), Assay Type: Rec-assay, DNA effects (bacterial DNA repair), Assay Code: RE1+, Evaluation Type: Evaluation A (Pre-1980)); “active; positive” (Species/Cell Type: Human diploid fibroblasts, Assay Type: Unscheduled DNA synthesis (UDS) in vitro, DNA effects, Assay Code: UDH+, Evaluation Type: Evaluation A (Pre-1980)); “active; positive” (Species/Cell Type: Saccharomyces cerevisiae, Assay Type: Mitotic recombination or gene conversion, Assay Code: YEH+, Evaluation Type: Evaluation A (Pre-1980)); “active; positive” under setting [8]; “inactive; negative” under setting [9]; “active; positive” (Species/Cell Type: Syrian hamster embryo (SHE) cells, Assay Type: Cell transformation, clonal assay, Assay Code: CTC+, Evaluation Type: Evaluation A (Pre-1980)).

In the case of `CCOP(=O)(OCC)Oc1nc(Cl)c(Cl)cc1Cl`, the mutagenic call runs as follows: (Species/Cell Type: Nonhuman, Assay Type: Sister-chromatid exchange (SCE) in vitro, Assay Code: SC2T, Evaluation Type: Evaluation B (Post-1980)) “no conclusion”; (Species/Cell Type: Nonhuman, Assay Type: Sister-chromatid exchange (SCE) in vivo, Assay Code: SC3-, Evaluation Type: Evaluation B (Post-1980)) “inactive; negative”.

For `O=C(N[C@@H](CO)[C@@H](O)c1ccc([N+](=O)[O-])cc1)C(Cl)Cl`, the mutagenic call under setting [8] is “active; positive”.

For the compound `CC[C@H](C)[C@H](NC(=O)[C@@H](NC(=O)N[C@@H](Cc1ccccc1)C(=O)O)C1CCN=C(N)N1)C(=O)N[C@H](C=O)Cc1ccccc1` (stereo partly specified) (tested in a mixture with another compound), the mutagenic call (Species/Cell Type: Human, Assay Type: Sister-chromatid exchange (SCE) in vitro, Assay Code: SC1T, Evaluation Type: Evaluation B (Post-1980)) was “no conclusion”.

As to `C[C@H]1O[C@@H](O[C@H]2[C@@H](O)C[C@H](O[C@H]3[C@@H](O)C[C@H](O[C@H]4CC[C@@]5(C)[C@H](CC[C@@H]6[C@@H]5C[C@@H](O)[C@]5(C)[C@@H](C7=CC(=O)OC7)CC[C@]65O)C4)O[C@@H]3C)O[C@@H]2C)C[C@H](O)[C@@H]1O`, the mutagenic call under setting [1] is recorded as “no conclusion”.

For the compound `OOC1CCCc2ccccc21` (stereo unspecified), under setting [7], the mutagenic call is “inactive; negative”.

In the case of `Cc1ccc(Cl)cc1N`, the mutagenic call under setting [2] was “inactive; negative”. The call under setting [10] is “active; positive”.

For the compound `Oc1cc2cccc3ccc4cc5ccccc5c1c4c32`, the mutagenic call was “inactive; negative” under setting [11] and “no conclusion” under setting [12]. Under setting [10], the call is “active; positive”.

Consider `C/C(=N\O)c1ccc([N+](=O)[O-])s1`, for which the mutagenic call under setting [12] is listed as “no conclusion”.

As for `O=NN1CCCN(N=O)CC1`, the mutagenic call under setting [6] is “active; positive”.

`O=NN1CCCNC1=O`: the mutagenic call under setting [8] was “active; positive”.

On to `COc1ccc(N)cc1N`, for which the mutagenic call is “active; positive” under setting [13]; “no conclusion” (Species/Cell Type: Mammalian polychromatic erythrocytes, Assay Type: Micronucleus test, chromosome aberrations, Assay Code: MNTT, Evaluation Type: Evaluation A (Pre-1980)); “inactive; negative” under setting [2]; “active; positive” (Species/Cell Type: Neurospora crassa, Assay Type: Aneuploidy, chromosome aberrations, Assay Code: NEN+, Evaluation Type: Evaluation A (Pre-1980)); “active; positive” under setting [4]; “inactive; negative” (Species/Cell Type: Rodents, Sex: Male, Assay Type: Dominant lethal test, Assay Code: DLT-, Evaluation Type: Evaluation A (Pre-1980)). The mutagenic call under setting [6] is “active; positive”. Further, the call under setting [3] was “active; positive”.

On to `C/C=C/c1ccc(O)c(OC)c1`, for which, where the note is “Species/Cell Type: Human lymphocytes, Assay Type: Sister-chromatid exchange (SCE) in vitro, Assay Code: SCL+, Evaluation Type: Evaluation B (Post-1980)”, the mutagenic call was “active; positive”.

As to `Oc1ccc2ccc3c4ccccc4cc4ccc1c2c43`, the mutagenic call (Species/Cell Type: Chinese hamster lung (V79) cells, Assay Type: Forward gene mutation at the HPRT or ouabain locus, Assay Code: V79+/-*, Activation: With metabolic activation, Evaluation Type: Evaluation A (Pre-1980)) is “inactive; positive without activation, negative with activation”; the mutagenic call (Species/Cell Type: Escherichia coli polA (W3110 vs P3478), Assay Type: Rec-assay, DNA effects (bacterial DNA repair), Assay Code: RE2+, Evaluation Type: Evaluation A (Pre-1980)) was “active; positive”; the mutagenic call under setting [1] is given as “no conclusion”; the mutagenic call under setting [5] was “inactive; negative”; the mutagenic call under setting [8] is “active; positive”; the mutagenic call under setting [9] is “inactive; negative”. Moreover, the call under setting [14] is recorded as “no conclusion”.

As for `O=c1[nH]cc(I)c(=O)[nH]1`, the mutagenic call (Species/Cell Type: Vicia faba, Assay Type: Chromosome aberrations, Assay Code: VIC+, Evaluation Type: Evaluation A (Pre-1980)) is “active; positive”.

Consider `Oc1cc2cc3ccccc3c3ccc4cccc1c4c23`, for which the mutagenic call reads like this: under setting [11], “inactive; negative”; (Species/Cell Type: Nonhuman, Assay Type: Sister-chromatid exchange (SCE) in vitro, Assay Code: SC2+, Evaluation Type: Evaluation B (Post-1980)) “active; positive”; under setting [12], “no conclusion”. Also, under setting [14], the call is “no conclusion”.

As to `CCOP(=S)(NC(C)CC)Oc1cc(C)ccc1[N+](=O)[O-]` (stereo unspecified), the mutagenic call under setting [9] was “inactive; negative”.

In the case of `CN(C)P(=O)(N(C)C)N1CC1`, the mutagenic call by setting is: under setting [13], “active; positive”; (Species/Cell Type: Human lymphocytes, Assay Type: Sister-chromatid exchange (SCE) in vitro, Assay Code: SCL+D, Dose Response: With dose response, Evaluation Type: Evaluation B (Post-1980)) “active; positive”; (Species/Cell Type: Human, Assay Type: Sister-chromatid exchange (SCE) in vitro, Assay Code: SC1+D, Dose Response: With dose response, Evaluation Type: Evaluation B (Post-1980)) “active; positive”; (Species/Cell Type: Nonhuman, Assay Type: Chromosome aberrations in vitro, Assay Code: CY&+, Evaluation Type: Evaluation A (Pre-1980)) “active; positive”.

In the case of `CCCCOC(=O)C=[N+]=[N-]`, where the note is “Species/Cell Type: Arabidopsis species, Assay Type: Gene mutation, Assay Code: ARM+, Evaluation Type: Evaluation A (Pre-1980)”, the mutagenic call is “active; positive”.
